What was measured:
[1] = biological target: T1, ΔF508-CFTR (Homo sapiens, UniProt P13569, DEL508-508); experiment: CFTR cell surface levels using HRP-tagged ΔF508-CFTR expressing CFBE cells, in the presence of a co-corrector; format: cell-based
T1 construct: host or cells: CFBE41o-, doxycycline-inducible
Method in brief: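 Cells were seeded with 0.5 μg/mL doxycycline and held 68 h at 37 °C. Test compounds plus 3 μM co-corrector (final 0.1% DMSO) were then added for 20 h at 33 °C. Washed cells received HRP substrate, and luminescence was normalized between DMSO and 3 μM co-corrector controls.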

[2] = biological target: T1, ΔF508-CFTR; experiment: CFTR cell surface levels using HRP-tagged ΔF508-CFTR expressing CFBE cells, intrinsic corrector capacity; format: cell-based
Method in brief: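 Here the cells express ΔF508-CFTR with horseradish peroxidase inserted in extracellular loop 4, so only rescued channel at the surface gives luminescent signal. Compounds act on their own, 20 h at the reduced temperature of 33 °C; values are percent activity relative to DMSO and a 3 μM corrector.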

[3] = HRP-tagged ΔF508-CFTR expressing CFBE cells, in the presence of 3 μM co-corrector
[4] = HRP-tagged ΔF508-CFTR expressing CFBE cells, in the presence of 3 μM co-corrector, read-out: EC50
[5] = HRP-tagged ΔF508-CFTR expressing CFBE cells, intrinsic corrector capacity (no co-corrector), 33° C., 20 hours
[6] = HRP-tagged ΔF508-CFTR expressing CFBE cells, intrinsic corrector capacity (no co-corrector), 33° C., 20 hours, read-out: EC50
[7] = HRP-tagged ΔF508-CFTR CFBE41o- cells, compounds alone (intrinsic corrector capacity), 20 hours at 33° C., positive control 3 μM corrector
[8] = HRP-tagged ΔF508-CFTR CFBE41o- cells, compounds alone (intrinsic corrector capacity), 20 hours at 33° C., read-out: EC50

T1 sequence (P13569 with tags, fused parts or gaps DEL508-508): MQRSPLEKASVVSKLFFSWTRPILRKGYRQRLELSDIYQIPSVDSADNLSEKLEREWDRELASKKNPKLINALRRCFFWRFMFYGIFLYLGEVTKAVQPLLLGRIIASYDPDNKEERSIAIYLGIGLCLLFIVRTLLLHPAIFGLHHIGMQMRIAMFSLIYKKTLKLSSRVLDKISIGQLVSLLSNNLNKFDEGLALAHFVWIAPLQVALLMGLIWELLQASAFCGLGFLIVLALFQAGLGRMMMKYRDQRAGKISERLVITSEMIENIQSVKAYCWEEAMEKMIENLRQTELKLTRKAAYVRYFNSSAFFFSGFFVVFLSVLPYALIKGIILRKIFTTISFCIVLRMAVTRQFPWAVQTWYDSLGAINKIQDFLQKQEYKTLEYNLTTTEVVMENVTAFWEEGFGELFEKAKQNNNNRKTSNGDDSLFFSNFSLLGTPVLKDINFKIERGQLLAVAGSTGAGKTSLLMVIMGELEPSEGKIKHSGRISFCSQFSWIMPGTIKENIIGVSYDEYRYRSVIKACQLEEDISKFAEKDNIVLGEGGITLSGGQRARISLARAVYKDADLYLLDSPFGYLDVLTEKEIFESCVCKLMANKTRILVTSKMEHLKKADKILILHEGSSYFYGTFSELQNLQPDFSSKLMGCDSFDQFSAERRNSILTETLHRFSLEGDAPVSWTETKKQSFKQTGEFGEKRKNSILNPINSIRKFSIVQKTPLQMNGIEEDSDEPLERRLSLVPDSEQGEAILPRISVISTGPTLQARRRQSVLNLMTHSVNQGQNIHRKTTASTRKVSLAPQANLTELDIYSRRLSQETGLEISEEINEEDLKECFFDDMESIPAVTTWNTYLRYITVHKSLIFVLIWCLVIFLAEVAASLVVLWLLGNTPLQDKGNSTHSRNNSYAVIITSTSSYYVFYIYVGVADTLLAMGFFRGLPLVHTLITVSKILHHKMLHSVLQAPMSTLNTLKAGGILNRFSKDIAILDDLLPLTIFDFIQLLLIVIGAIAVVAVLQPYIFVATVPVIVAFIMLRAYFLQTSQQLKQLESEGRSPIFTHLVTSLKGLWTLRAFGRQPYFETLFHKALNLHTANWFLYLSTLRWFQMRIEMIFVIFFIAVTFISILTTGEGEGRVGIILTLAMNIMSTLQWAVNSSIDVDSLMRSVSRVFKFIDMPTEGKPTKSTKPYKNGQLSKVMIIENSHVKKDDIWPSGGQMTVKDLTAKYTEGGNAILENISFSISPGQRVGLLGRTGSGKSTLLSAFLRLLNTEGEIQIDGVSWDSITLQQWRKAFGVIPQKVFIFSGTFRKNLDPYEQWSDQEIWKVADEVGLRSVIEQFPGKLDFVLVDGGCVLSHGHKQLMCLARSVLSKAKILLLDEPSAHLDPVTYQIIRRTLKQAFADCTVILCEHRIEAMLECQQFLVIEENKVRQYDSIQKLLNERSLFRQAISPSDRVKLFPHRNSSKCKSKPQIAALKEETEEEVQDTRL

Compound	% Activation [1, 3]	EC50 [1, 4]	% Activation [2, 5]	EC50 [2, 6]	% Activation [2, 7]	EC50 [2, 8]	% Activation ([2]; HRP-tagged ΔF508-CFTR CFBE cells, compound alone (intrinsic corrector capacity), 20 hours at 33° C.)	EC50 ([2]; HRP-tagged ΔF508-CFTR CFBE cells, compound alone (intrinsic corrector capacity), 20 hours at 33° C., read-out: EC50)	EC50 [1]	EC50 [2]
COC(C)C1CCN(c2cc(C(=O)O)nc3c2c(C2CCC2)nn3-c2ccccc2)CC1 (stereo not shown) [compound 498, 3-cyclobutyl-4-[4-(1-methoxyethyl)piperidin-1-yl]-1-phenyl-1H-pyrazolo[3,4-b]pyridine-6-carboxylic acid]	435.9%	87.8 nM	244.33%	326 nM	–	–	–	–	–	–
CN(c1ccc(-c2cc(C(=O)O)nc3c2c(C2CCC2)nn3-c2ccccc2)cn1)C1CCOCC1 [compound 183, 3-cyclobutyl-4-{6-[methyl(oxan-4-yl)amino]pyridin-3-yl}-1-phenyl-1H-pyrazolo[3,4-b]pyridine-6-carboxylic acid]	469.58%	460 nM	–	–	252.9%	528 nM	–	–	–	–
O=C(O)c1cc(N2CCC(N3CCOCC3)CC2)c2c(C3CCC3)nn(-c3ccnc(O)c3)c2n1 [compound 885, 3-cyclobutyl-1-(2-hydroxypyridin-4-yl)-4-[4-(morpholin-4-yl)piperidin-1-yl]-1H-pyrazolo[3,4-b]pyridine-6-carboxylic acid]	255.5%	2450 nM	66.2%	3340 nM	–	–	–	–	–	–
COCCOC1CCN(c2cc(C(=O)O)nc3c2c(C)nn3-c2ccccc2)CC1 [compound 318, 4-[4-(2-methoxyethoxy)piperidin-1-yl]-3-methyl-1-phenyl-1H-pyrazolo[3,4-b]pyridine-6-carboxylic acid]	323.72%	1860 nM	–	–	134.15%	2630 nM	–	–	–	–
Cc1nn(-c2ccccc2)c2nc(C(=O)O)cc(-c3ccc(N4CCC(F)(F)CC4)cc3)c12 [compound 108, 4-[4-(4,4-difluoropiperidin-1-yl)phenyl]-3-methyl-1-phenyl-1H-pyrazolo[3,4-b]pyridine-6-carboxylic acid]	329.7%	752 nM	–	–	145.5%	904 nM	–	–	–	–
COCCC1CCN(c2cc(C(=O)O)nc3c2c(C2CCC2)nn3-c2ccccc2)CC1 [compound 403, 3-cyclobutyl-4-[4-(2-methoxyethyl)piperidin-1-yl]-1-phenyl-1H-pyrazolo[3,4-b]pyridine-6-carboxylic acid]	507.25%	311 nM	293.4%	408 nM	–	–	–	–	–	–
CS(=O)(=O)NC1CCN(c2cc(C(=O)O)nc3c2c(C2CCC2)nn3-c2ccccc2)CC1 [compound 519, 3-cyclobutyl-4-{4-[(methanesulfonyl)amino]piperidin-1-yl}-1-phenyl-1H-pyrazolo[3,4-b]pyridine-6-carboxylic acid]	340.6%	3330 nM	149.3%	3340 nM	–	–	–	–	–	–
CC(C)N(CCOc1cc(C(=O)O)nc2c1c(C1CCC1)nn2-c1ccccc1)C1COC1 [compound 478, 3-cyclobutyl-4-{2-[(oxetan-3-yl)(propan-2-yl)amino]ethoxy}-1-phenyl-1H-pyrazolo[3,4-b]pyridine-6-carboxylic acid]	292%	409 nM	125.2%	828 nM	–	–	–	–	–	–
O=C(O)c1cc(N2CCC(N3CCOCC3)CC2)c2c(C3CCC3)nn(-c3ccnc(OC4CCOCC4)c3)c2n1 [compound 918, 3-cyclobutyl-4-[4-(morpholin-4-yl)piperidin-1-yl]-1-{2-[(oxan-4-yl)oxy]pyridin-4-yl}-1H-pyrazolo[3,4-b]pyridine-6-carboxylic acid]	352.1%	479 nM	–	–	–	–	149.75%	712 nM	–	–
CC(C)(C)OC(=O)N1CC[C@@H]2CN(c3cc(C(=O)O)nc4c3c(C3CCC3)nn4-c3ccccc3)CC[C@@H]21 (racemic) [compound 549, rac-4-[(3aR,7aS)-1-(tert-butoxycarbonyl)octahydro-5H-pyrrolo[3,2-c]pyridin-5-yl]-3-cyclobutyl-1-phenyl-1H-pyrazolo[3,4-b]pyridine-6-carboxylic acid]	467.2%	–	302.2%	–	–	–	–	–	61.7 nM	211 nM
CC(C)c1nn(-c2cccc(N(C)C)c2)c2nc(C(=O)O)cc(N3CCC(CO)CC3)c12 [compound 331, 1-[3-(dimethylamino)phenyl]-4-[4-(hydroxymethyl)piperidin-1-yl]-3-(propan-2-yl)-1H-pyrazolo[3,4-b]pyridine-6-carboxylic acid]	513.57%	390 nM	–	–	311.73%	1050 nM	–	–	–	–
O=C(O)c1cc(N2CCN(CC(=O)N3CCOCC3)CC2)c2c(C3CCC3)nn(-c3ccccc3)c2n1 [compound 474, 3-cyclobutyl-4-{4-[2-(morpholin-4-yl)-2-oxoethyl]piperazin-1-yl}-1-phenyl-1H-pyrazolo[3,4-b]pyridine-6-carboxylic acid]	301.35%	2250 nM	125.3%	3340 nM	–	–	–	–	–	–
CC(C)c1nn(-c2ccc(F)cc2F)c2nc(C(=O)O)cc(-c3cnc(N4CCC(C#N)CC4)nc3)c12 [compound 325, 4-[2-(4-cyanopiperidin-1-yl)pyrimidin-5-yl]-1-(2,4-difluorophenyl)-3-(propan-2-yl)-1H-pyrazolo[3,4-b]pyridine-6-carboxylic acid]	389.75%	779 nM	–	–	177.1%	1200 nM	–	–	–	–
COCC1(F)CCN(c2cc(C(=O)O)nc3c2c(C2CCC2)nn3-c2ccccc2)C1 (stereo not shown) [compound 508, 3-cyclobutyl-4-[3-fluoro-3-(methoxymethyl)pyrrolidin-1-yl]-1-phenyl-1H-pyrazolo[3,4-b]pyridine-6-carboxylic acid]	271.8%	451 nM	104.6%	1110 nM	–	–	–	–	–	–
CC(C)c1nn(C2CCCC2)c2nc(C(=O)O)cc(-c3ccc(N(C)C)nc3)c12 [compound 83, 1-cyclopentyl-4-[6-(dimethylamino)pyridin-3-yl]-3-(propan-2-yl)-1H-pyrazolo[3,4-b]pyridine-6-carboxylic acid]	332.65%	1050 nM	–	–	142.25%	1470 nM	–	–	–	–
Cc1nn(-c2ccccc2)c2nc(C(=O)O)cc(-c3ccc(N4CC(F)(F)C4)cc3)c12 [compound 97, 4-[4-(3,3-difluoroazetidin-1-yl)phenyl]-3-methyl-1-phenyl-1H-pyrazolo[3,4-b]pyridine-6-carboxylic acid]	268%	1160 nM	–	–	96.51%	1530 nM	–	–	–	–
C[C@H]1C[C@H](c2nn(-c3ccccc3)c3nc(C(=O)O)cc(-c4ccc(N5CCC(C#N)CC5)nc4)c32)C1 [compound 551, 4-[6-(4-cyanopiperidin-1-yl)pyridin-3-yl]-3-(trans-3-methylcyclobutyl)-1-phenyl-1H-pyrazolo[3,4-b]pyridine-6-carboxylic acid]	424.35%	87.2 nM	223.1%	370 nM	–	–	–	–	–	–
CN(c1cc(C(=O)O)nc2c1c(C1CCC1)nn2-c1ccccc1)[C@H]1C[C@@H](OC(C)(C)C)C1 [compound 439, 4-[(cis-3-tert-butoxycyclobutyl)(methyl)amino]-3-cyclobutyl-1-phenyl-1H-pyrazolo[3,4-b]pyridine-6-carboxylic acid]	312.85%	1110 nM	120.85%	1120 nM	–	–	–	–	–	–
Cc1nn(-c2cccc(N(C)C)c2)c2nc(C(=O)O)cc(-c3ccc(N4CCOCC4)cc3)c12 [compound 36, 1-[3-(dimethylamino)phenyl]-3-methyl-4-[4-(morpholin-4-yl)phenyl]-1H-pyrazolo[3,4-b]pyridine-6-carboxylic acid]	364.5%	3340 nM	–	–	118.9%	2000 nM	–	–	–	–
O=C(O)c1cc(N2CCC(N3CCOCC3)CC2)c2c(C3CCC3)nn(-c3ccc(OC(F)(F)F)cc3)c2n1 [compound 909, 3-cyclobutyl-4-[4-(morpholin-4-yl)piperidin-1-yl]-1-[4-(trifluoromethoxy)phenyl]-1H-pyrazolo[3,4-b]pyridine-6-carboxylic acid]	498.4%	56.2 nM	277.7%	134 nM	–	–	–	–	–	–
CN(C)CC1CN(c2cc(C(=O)O)nc3c2c(C2CCC2)nn3-c2ccccc2)CCO1 (stereo not shown) [compound 562, 3-cyclobutyl-4-{2-[(dimethylamino)methyl]morpholin-4-yl}-1-phenyl-1H-pyrazolo[3,4-b]pyridine-6-carboxylic acid]	347%	921 nM	154.7%	1770 nM	–	–	–	–	–	–
COCCN(C)c1ccc(-c2cc(C(=O)O)nc3c2c(C(C)C)nn3-c2cccc(N3CCOCC3)c2)cn1 [compound 179]	548%	978 nM	–	–	329.25%	2820 nM	–	–	–	–

From patent publication US9796711B2, “Substituted pyrazolo[3,4-b]pyridin-6-carboxylic acids and method of use” (AbbVie S.àr.l., priority 2015, dated 2017)
